ChEMBL document CHEMBL3132769, “Fragment growing to retain or alter the selectivity of anchored kinase hinge-binding fragments” (Medchemcomm, 2014)

Columns and labels:
[1] = molecular target: MAP kinase-activated protein kinase 3 (Homo sapiens) (UniProt Q16644); experiment: Inhibition of human full length MAPKAPK3 expressed in Escherichia coli cell assessed as substrate phosphorylation using fluorescence-labelled peptides as substrate at 0.06 uM after 90 mins by microfluidic peptide phosphorylation assay
[2] = molecular target: Protein kinase C theta type (Homo sapiens) (UniProt Q04759); experiment: Inhibition of human truncated PKC theta expressed in baculovirus assessed as substrate phosphorylation using fluorescence-labelled peptides as substrate at 0.06 uM after 90 mins by microfluidic peptide phosphorylation assay
[3] = molecular target: T1, Aurora kinase C (Homo sapiens) (UniProt Q9UQB9); experiment: Inhibition of human full length AurC expressed in baculovirus assessed as substrate phosphorylation using fluorescence-labelled peptides as substrate at 0.06 uM after 90 mins by microfluidic peptide phosphorylation assay
T1 sequence (whole entry): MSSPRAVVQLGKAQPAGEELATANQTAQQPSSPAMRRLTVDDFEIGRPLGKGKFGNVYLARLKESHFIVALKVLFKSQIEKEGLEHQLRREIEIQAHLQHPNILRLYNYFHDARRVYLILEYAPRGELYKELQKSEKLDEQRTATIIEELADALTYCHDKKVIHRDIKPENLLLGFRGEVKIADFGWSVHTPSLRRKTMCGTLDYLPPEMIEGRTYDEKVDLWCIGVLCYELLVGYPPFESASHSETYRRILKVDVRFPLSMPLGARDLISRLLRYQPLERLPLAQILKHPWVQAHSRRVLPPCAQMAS

[4] = molecular target: Rho-associated protein kinase 2 (Homo sapiens) (UniProt O75116); experiment: Inhibition of human ROCK2 catalytic domain expressed in baculovirus assessed as substrate phosphorylation using fluorescence-labelled peptides as substrate at 0.2 uM after 90 mins by microfluidic peptide phosphorylation assay
[5] = molecular target: RAF proto-oncogene serine/threonine-protein kinase (Homo sapiens) (UniProt P04049); experiment: Inhibition of human truncated c-Raf expressed in baculovirus assessed as substrate phosphorylation using fluorescence-labelled peptides as substrate at 0.2 uM after 90 mins by microfluidic peptide phosphorylation assay
[6] = molecular target: Tyrosine-protein kinase ABL1 (Homo sapiens) (UniProt P00519); conditions: 0.1 uM
Description: Inhibition of human full-length ABL expressed in baculovirus assessed as substrate phosphorylation using fluorescence-labelled peptides as substrate at 0.1 uM after 90 mins by microfluidic peptide phosphorylation assay

[7] = molecular target: MAP/microtubule affinity-regulating kinase 3 (Homo sapiens) (UniProt P27448); experiment: Inhibition of human full length c-TAK1 expressed in Escherichia coli cell assessed as substrate phosphorylation using fluorescence-labelled peptides as substrate at 0.1 uM after 90 mins by microfluidic peptide phosphorylation assay
[8] = molecular target: MAP kinase-activated protein kinase 2 (Homo sapiens) (UniProt P49137); conditions: 0.1 uM
Description: Inhibition of human full length MAPKAPK2 expressed in baculovirus assessed as substrate phosphorylation using fluorescence-labelled peptides as substrate at 0.1 uM after 90 mins by microfluidic peptide phosphorylation assay

[9] = molecular target: Tyrosine-protein kinase Lck (Homo sapiens) (UniProt P06239); experiment: Inhibition of human full length LCK expressed in baculovirus assessed as substrate phosphorylation using fluorescence-labelled peptides as substrate at 95 uM after 90 mins by microfluidic peptide phosphorylation assay
[10] = molecular target: T2, cGMP-dependent protein kinase 1 (Homo sapiens) (UniProt Q13976); experiment: Inhibition of human full length PKG-1a expressed in baculovirus assessed as substrate phosphorylation using fluorescence-labelled peptides as substrate at 1000 uM after 90 mins by microfluidic peptide phosphorylation assay
T2 sequence (whole entry): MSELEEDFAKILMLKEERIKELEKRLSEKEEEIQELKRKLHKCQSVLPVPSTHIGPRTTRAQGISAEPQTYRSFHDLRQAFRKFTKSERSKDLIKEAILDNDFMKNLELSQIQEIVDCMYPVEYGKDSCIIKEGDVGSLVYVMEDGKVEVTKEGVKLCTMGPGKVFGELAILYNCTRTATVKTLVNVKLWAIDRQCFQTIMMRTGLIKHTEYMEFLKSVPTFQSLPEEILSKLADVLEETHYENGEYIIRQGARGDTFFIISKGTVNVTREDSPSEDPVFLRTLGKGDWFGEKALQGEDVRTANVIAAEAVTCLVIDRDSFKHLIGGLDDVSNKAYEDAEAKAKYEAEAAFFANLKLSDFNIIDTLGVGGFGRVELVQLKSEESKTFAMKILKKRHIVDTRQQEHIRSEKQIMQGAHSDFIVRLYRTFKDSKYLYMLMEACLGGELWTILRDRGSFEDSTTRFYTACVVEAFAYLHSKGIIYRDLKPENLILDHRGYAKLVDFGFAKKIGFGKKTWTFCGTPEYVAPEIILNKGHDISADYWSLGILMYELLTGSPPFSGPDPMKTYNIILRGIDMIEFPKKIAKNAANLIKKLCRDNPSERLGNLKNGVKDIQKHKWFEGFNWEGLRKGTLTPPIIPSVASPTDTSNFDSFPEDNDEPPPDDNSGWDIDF

[11] = molecular target: MAP/microtubule affinity-regulating kinase 3 (Homo sapiens) (UniProt P27448); experiment: Inhibition of human full length c-TAK1 expressed in Escherichia coli cell assessed as substrate phosphorylation using fluorescence-labelled peptides as substrate at 70 uM after 90 mins by microfluidic peptide phosphorylation assay
[12] = molecular target: Protein kinase C delta type (Homo sapiens) (UniProt Q05655); experiment: Inhibition of human truncated PKC delta expressed in baculovirus assessed as substrate phosphorylation using fluorescence-labelled peptides as substrate at 70 uM after 90 mins by microfluidic peptide phosphorylation assay
[13] = molecular target: Calcium/calmodulin-dependent protein kinase type II subunit beta (Homo sapiens) (UniProt Q13554); experiment: Inhibition of human CAMK2 beta catalytic domain expressed in baculovirus assessed as substrate phosphorylation using fluorescence-labelled peptides as substrate at 420 uM after 90 mins by microfluidic peptide phosphorylation assay
[14] = molecular target: MAP kinase p38 (Homo sapiens) (UniProt O15264+Q15759+Q16539+P53778); experiment: Inhibition of human full length p38 beta2 expressed in Escherichia coli cell assessed as substrate phosphorylation using fluorescence-labelled peptides as substrate at 420 uM after 90 mins by microfluidic peptide phosphorylation assay
[15] = molecular target: Epidermal growth factor receptor (Homo sapiens) (UniProt P00533); experiment: Inhibition of human EGFR catalytic domain expressed in baculovirus assessed as substrate phosphorylation using fluorescence-labelled peptides as substrate at 420 uM after 90 mins by microfluidic peptide phosphorylation assay
Sequence of Epidermal growth factor receptor (Homo sapiens) (P00533 whole entry, the tested form may be a part): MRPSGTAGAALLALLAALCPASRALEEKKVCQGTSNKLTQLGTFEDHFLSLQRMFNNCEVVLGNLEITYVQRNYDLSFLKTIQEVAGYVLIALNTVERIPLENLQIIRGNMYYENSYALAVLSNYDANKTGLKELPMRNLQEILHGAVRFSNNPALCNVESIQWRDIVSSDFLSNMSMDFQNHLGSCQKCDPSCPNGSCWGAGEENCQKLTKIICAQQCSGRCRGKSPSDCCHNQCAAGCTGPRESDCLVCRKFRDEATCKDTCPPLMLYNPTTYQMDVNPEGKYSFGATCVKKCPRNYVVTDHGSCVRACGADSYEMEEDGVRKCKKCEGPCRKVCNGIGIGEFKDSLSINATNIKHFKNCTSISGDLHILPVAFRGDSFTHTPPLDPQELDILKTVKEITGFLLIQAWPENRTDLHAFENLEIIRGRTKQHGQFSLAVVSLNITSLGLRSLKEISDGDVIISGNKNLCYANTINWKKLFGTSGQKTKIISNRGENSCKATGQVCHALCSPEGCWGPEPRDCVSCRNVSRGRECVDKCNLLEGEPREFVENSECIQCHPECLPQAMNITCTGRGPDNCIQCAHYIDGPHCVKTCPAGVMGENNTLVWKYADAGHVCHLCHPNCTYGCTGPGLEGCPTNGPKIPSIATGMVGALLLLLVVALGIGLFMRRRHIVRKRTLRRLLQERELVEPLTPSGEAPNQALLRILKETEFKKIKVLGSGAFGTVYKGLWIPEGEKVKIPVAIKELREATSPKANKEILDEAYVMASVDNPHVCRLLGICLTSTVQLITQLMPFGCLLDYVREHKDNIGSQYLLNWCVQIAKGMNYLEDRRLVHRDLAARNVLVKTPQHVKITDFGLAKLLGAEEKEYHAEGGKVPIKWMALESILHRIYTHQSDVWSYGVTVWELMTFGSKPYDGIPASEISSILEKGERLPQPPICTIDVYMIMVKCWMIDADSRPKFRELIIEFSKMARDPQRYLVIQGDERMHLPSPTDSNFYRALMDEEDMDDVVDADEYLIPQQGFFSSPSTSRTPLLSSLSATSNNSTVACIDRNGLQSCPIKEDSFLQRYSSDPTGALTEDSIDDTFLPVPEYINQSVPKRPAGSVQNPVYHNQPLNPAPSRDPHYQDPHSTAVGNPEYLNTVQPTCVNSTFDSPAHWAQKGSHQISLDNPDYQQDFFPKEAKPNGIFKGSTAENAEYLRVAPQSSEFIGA

Sequence of MAP/microtubule affinity-regulating kinase 3 (Homo sapiens) (P27448 whole entry, looked up, the tested form may be a part): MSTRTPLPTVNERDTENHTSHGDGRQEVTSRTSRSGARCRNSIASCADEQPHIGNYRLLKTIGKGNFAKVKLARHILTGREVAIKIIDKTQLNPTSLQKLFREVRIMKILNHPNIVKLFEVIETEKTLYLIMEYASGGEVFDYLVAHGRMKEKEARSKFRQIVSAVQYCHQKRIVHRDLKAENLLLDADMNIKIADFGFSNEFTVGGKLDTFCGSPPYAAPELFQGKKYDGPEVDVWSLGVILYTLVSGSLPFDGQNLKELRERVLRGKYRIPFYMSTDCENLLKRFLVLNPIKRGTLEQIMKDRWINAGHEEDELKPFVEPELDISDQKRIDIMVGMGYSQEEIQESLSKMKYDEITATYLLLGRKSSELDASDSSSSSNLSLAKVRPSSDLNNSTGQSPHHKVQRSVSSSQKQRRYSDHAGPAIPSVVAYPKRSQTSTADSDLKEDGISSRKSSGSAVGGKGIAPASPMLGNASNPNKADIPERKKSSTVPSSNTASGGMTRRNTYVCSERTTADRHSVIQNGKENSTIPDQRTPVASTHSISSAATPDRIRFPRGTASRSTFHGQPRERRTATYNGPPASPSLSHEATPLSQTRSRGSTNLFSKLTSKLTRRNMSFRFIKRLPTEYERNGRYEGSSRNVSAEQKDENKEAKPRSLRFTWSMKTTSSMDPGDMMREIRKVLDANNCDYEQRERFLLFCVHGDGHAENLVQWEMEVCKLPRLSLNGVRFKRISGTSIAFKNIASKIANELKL
Sequence of Tyrosine-protein kinase Lck (Homo sapiens) (P06239 2-509 limits assumed): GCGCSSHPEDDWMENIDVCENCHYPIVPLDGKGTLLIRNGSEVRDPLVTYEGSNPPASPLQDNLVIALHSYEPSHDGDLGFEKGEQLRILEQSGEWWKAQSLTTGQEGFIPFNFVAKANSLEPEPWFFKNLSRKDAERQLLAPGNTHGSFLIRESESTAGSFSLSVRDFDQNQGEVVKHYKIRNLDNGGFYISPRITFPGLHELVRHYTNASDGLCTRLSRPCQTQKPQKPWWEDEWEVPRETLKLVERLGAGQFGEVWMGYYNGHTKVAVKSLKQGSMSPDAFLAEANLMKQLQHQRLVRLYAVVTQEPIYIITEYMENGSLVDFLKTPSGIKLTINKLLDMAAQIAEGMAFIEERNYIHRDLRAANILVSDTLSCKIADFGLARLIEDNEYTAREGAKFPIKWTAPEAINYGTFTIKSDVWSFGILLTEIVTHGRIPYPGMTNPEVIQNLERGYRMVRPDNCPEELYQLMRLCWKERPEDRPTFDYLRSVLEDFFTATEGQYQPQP
Sequence of Calcium/calmodulin-dependent protein kinase type II subunit beta (Homo sapiens) (Q13554 whole entry, the tested form may be a part): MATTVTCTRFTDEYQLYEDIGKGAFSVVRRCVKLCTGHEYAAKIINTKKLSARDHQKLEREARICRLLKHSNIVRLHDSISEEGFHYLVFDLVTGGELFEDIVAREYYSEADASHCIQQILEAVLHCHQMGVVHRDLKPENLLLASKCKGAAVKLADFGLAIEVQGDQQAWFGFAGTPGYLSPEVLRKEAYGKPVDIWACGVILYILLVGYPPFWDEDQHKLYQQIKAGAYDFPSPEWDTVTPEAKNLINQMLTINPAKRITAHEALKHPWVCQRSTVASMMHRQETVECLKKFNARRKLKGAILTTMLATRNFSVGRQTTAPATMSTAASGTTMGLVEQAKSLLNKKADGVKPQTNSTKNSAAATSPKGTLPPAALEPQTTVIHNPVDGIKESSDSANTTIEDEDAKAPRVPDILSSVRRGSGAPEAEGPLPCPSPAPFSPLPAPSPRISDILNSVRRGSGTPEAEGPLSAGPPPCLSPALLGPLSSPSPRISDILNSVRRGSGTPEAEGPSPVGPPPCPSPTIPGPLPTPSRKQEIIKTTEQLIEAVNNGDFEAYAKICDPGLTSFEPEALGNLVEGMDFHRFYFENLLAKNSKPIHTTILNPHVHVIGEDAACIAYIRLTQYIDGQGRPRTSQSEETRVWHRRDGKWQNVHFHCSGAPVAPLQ
Sequence of MAP kinase-activated protein kinase 2 (Homo sapiens) (P49137 whole entry, looked up): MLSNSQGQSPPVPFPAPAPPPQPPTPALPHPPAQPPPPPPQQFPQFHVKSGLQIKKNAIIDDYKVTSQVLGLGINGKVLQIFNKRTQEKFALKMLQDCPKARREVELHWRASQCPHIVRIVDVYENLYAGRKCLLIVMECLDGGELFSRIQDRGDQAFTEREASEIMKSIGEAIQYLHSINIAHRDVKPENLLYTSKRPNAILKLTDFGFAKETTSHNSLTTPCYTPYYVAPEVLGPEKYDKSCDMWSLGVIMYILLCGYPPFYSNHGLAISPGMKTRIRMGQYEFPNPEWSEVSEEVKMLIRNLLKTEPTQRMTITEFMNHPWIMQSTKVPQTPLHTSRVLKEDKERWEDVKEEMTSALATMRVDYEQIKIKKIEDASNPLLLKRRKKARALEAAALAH
Sequence of Tyrosine-protein kinase ABL1 (Homo sapiens) (P00519 whole entry): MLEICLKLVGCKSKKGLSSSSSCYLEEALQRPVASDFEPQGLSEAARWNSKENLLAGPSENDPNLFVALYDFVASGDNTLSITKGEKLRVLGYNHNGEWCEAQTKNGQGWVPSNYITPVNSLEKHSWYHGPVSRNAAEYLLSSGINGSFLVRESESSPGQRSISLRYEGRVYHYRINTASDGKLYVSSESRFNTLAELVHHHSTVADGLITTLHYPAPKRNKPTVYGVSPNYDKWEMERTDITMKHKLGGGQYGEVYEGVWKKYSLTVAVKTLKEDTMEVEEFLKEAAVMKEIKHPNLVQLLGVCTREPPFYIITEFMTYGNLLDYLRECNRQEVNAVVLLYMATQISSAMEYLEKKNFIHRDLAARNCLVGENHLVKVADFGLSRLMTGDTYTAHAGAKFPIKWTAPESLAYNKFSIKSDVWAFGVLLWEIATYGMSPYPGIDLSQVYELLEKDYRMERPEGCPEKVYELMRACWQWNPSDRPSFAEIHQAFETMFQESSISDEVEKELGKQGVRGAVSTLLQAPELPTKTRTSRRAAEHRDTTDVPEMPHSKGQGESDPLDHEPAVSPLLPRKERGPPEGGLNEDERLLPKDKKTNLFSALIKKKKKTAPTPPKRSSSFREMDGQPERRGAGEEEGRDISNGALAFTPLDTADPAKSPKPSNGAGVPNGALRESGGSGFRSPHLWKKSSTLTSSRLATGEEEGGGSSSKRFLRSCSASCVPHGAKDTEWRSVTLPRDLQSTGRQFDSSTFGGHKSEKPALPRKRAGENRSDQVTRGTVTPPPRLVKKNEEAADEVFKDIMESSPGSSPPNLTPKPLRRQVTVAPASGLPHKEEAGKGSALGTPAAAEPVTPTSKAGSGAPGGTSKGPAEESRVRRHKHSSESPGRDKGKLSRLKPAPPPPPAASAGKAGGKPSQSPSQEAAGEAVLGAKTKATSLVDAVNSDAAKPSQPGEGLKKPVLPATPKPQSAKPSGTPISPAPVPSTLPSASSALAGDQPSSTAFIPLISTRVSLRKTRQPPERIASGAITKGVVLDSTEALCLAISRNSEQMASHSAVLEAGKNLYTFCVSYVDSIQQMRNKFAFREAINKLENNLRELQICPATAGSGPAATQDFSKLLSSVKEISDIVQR
Sequence of MAP kinase-activated protein kinase 3 (Homo sapiens) (Q16644 whole entry, looked up, the tested form may be a part): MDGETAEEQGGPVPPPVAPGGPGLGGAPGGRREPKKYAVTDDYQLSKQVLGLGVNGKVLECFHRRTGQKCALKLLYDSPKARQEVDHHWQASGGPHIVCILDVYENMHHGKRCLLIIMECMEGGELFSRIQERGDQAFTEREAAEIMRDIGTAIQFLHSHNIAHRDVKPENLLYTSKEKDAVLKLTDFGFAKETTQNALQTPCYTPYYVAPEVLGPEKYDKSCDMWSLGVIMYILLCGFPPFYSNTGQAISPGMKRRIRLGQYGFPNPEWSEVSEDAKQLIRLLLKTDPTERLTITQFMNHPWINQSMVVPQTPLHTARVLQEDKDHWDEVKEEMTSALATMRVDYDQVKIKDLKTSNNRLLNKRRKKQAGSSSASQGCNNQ

## NC1(Cc2ccc(Cl)cc2)CCN(c2ncnc3[nH]ccc23)CC1
[1]
  inhibition: 7%
[2]
  inhibition: 4.5%
[3]
  inhibition: 0%

## Clc1ccc(C2(c3ccc(-c4ncnc5[nH]cnc45)cc3)CCNCC2)cc1
[4]
  inhibition: 97%
[5]
  inhibition: 3.5%

## C[C@H](CN(C)C)Oc1nc(Nc2cc3cccc(Cl)c3cn2)cnc1C#N
[6]
  inhibition: 0%
[7]
  inhibition: 6%
[8]
  inhibition: 0%

## NCCc1ccc(-c2ncnc3[nH]cnc23)cc1
[9]
  inhibition: 68.5%

## c1cnc2[nH]ccc2c1
[10]
  inhibition: 90.5%

## CNCc1ccc(-c2ncnc3[nH]cnc23)cc1
[11]
  inhibition: 6.5%
[12]
  inhibition: 60%

## c1nc(N2CCOCC2)c2nc[nH]c2n1
[13]
  inhibition: 20.5%
[14]
  inhibition: 1.5%
[15]
  inhibition: 29%
